Data taken from patent publication US8722332B2, “Macrocyclic lactone resistance marker for dirofilaria immitis” (priority 2010, dated 2014).
“Also recorded” adds a separate entry of the source. Read-outs that look alike come from different tables or passages of the source. Marks after values point to notes of the source that are not given here.

How the values were obtained:
mf = conditions: in vivo; cited from earlier work
D. immitis mf = test system: D. immitis mf; set-up: species or system Dirofilaria immitis; conditions: in vivo
adult heartworms = conditions: dog, in vivo
[1] = test system: adult heartworms (D. immitis antigen); set-up: species or system Dirofilaria immitis; conditions: in vivo; dihydrochloride

Compound | dose previously shown to kill mf (mf) | Microfilariae concentration in blood (D. immitis mf; po) | Microfilariae in blood (Knott's test) (D. immitis mf; po) | clinical signs after adulticide (adult heartworms) | Antigen test DiroChek result (+ve or −ve) [1] | Antigen test PetChek result (+ve or −ve) [1] | Antigen test SNAP result (+ve or −ve) [1] | Microfilariae in blood (Knott's test) (D. immitis mf)
CC[C@H](C)[C@H]1O[C@]2(CC[C@@H]1C)C[C@@H]1C[C@@H](C/C=C(\C)[C@@H](O[C@H]3C[C@H](OC)[C@@H](O[C@H]4C[C@H](OC)[C@@H](O)[C@H](C)O4)[C@H](C)O3)[C@@H](C)/C=C/C=C3\CO[C@@H]4[C@H](O)C(C)=C[C@@H](C(=O)O1)[C@]34O)O2 [IVM, ivermectin] | 0.05 mg/kg | ≧100^b mf/ml | remained continually microfilaremic; also recorded: still microfilaremic; also recorded: Knott's test +ve^a | – | – | – | – | –
Cl.Cl.NCCS[As](SCCN)c1ccc(Nc2nc(N)nc(N)n2)cc1 [melarsomine, melarsomine dihydrochloride] | – | – | – | transitory signs consistent with death of adult heartworms | still negative; also recorded: DiroChek −ve^c | negative; also recorded: PetChek −ve^a | still negative; also recorded: SNAP −ve^a | –
milbemycin oxime [MO] | 0.5 mg/kg | – | – | – | – | – | – | remained continually microfilaremic; also recorded: mf were still present; also recorded: Knott's test +ve^a; also recorded: Knott's test +ve^c
